Values quoted from earlier work, collected in patent US20110130383A1, “Use of Ion Channel Modulators in the Prophylaxis and Treatment of Inflammatory and Immunological Diseases” (LECTUS THERAPEUTICS LIMITED, priority 2006, published 2011).

Tests used:
[1] = rats, 28-day, administered by gavage; tissues including those reported to express Kv1.3 channels
Kv1.3 channels = Kv1.3 channels (Homo sapiens, UniProt P22001); conditions: inhibition of Kv1.3 channels versus cardiac Kv1.5 channels
Kv1.3 channels, sequence (P22001 whole entry): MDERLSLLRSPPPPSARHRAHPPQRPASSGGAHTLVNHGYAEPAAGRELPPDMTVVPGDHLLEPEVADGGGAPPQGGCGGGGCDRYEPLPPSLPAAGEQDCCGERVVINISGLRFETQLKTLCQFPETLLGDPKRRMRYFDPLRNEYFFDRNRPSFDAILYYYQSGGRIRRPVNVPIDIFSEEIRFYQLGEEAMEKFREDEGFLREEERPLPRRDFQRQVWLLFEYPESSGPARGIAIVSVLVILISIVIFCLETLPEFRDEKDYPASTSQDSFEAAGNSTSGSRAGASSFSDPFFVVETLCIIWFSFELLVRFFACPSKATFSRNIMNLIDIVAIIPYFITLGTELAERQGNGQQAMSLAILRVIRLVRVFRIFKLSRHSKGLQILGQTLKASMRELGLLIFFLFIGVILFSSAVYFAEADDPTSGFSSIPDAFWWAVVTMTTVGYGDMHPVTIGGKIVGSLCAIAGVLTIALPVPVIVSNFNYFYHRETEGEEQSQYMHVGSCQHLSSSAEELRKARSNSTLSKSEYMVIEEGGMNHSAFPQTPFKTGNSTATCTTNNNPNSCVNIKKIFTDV

SMILES: O=c1ccc2c(OCCCCOc3ccccc3)c3ccoc3cc2o1 [PAP-1]
- histopathological changes in tissues examined [1]: failed to induce any histopathological changes
- selectivity over cardiac Kv1.5 channels (Kv1.3 channels): 23 fold
